Reference: article PMC12845078 (Pharmaceuticals, 2025)

How the values were obtained:
[1] = test system: CYP1A2-mediated metabolism of MT; conditions: cited from earlier work
[2] = test system: CYP enzymes of MT 6-hydroxylation; test: in vitro; conditions: beagle, dog, liver microsomes, probe melatonin (MT) 2 μM, 6-hydroxylation to 6-HMT, IC50 Ratio (IC50 shift), DLM, 30 min pre-incubation with/without NADPH
Experimental: The reaction was initiated by adding pre-warmed NADPH (control groups lacked NADPH). The final incubation mixture contained 100 mM PBS, 5 mM MgCl2, liver microsomes (0.5 mg/mL), 1 mM NADPH, and 0.2% BSA. […] Concentrations in beagle dog microsomal incubations were 0, 0.125, 0.25, 0.5, 1, 2, 4, 8, 16, and 32 μM. […] All samples were prepared in triplicate. The concentration of 6-HMT was quantified using LC-MS/MS.
Competitive inhibition and time-dependent inhibition assays: The production of 6-HMT without inhibitors was set as 100%.

[3] = biological target: T1, CYP enzymes involved in melatonin 6-hydroxylation (Rattus norvegicus, UniProt P04799); test: Competitive inhibition of CBD on MT 6-hydroxylation, rat liver microsomes; assay type: in vitro ADME; conditions: probe melatonin (MT) 1 μM, 6-hydroxylation to 6-HMT
T1 sequence (P04799 2-513): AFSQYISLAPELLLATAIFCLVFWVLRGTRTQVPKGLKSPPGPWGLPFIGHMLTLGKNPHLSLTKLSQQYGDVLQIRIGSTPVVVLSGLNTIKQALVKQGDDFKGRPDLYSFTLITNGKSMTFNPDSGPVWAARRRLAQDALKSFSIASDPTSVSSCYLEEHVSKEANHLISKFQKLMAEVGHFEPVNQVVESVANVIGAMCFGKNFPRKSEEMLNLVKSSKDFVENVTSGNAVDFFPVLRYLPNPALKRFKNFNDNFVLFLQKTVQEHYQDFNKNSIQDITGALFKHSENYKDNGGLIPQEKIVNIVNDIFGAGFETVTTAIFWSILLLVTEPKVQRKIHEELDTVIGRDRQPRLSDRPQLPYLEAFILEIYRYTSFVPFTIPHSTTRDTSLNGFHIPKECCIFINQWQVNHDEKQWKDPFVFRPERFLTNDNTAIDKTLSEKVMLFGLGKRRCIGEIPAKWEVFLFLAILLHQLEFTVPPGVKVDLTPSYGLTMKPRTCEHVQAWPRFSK
Experimental: The final incubation system contained 100 mM PBS, 5 mM MgCl2, 0.5 mg/mL liver microsomal protein, and 1 mM NADPH. […] The final concentration of MT was 1 μM.

In the case of `C=C(C)[C@@H]1CCC(C)=C[C@H]1c1c(O)cc(CCCCC)cc1O` [CBD, Cannabidiol], the “[I]h (estimated free concentration in liver)” value ([1]; human, CBD dose 2000 mg) is listed as 3.55 µM, the “[I]h, concentration adopted for human” value ([1]; oral administration of 2000 mg CBD) is listed as 3.55 µM and the IC50 shift at 30 min [2] is listed as 1.27. For the same compound, the IC50 at 30 min ([3]; human, IC50, inhibition of MT 6-hydroxylation, hepatic microsomes of other species (not beagle)) was 13.5 to 36.5 µM, the IC50 at 30 min ([3]; IC50, inhibition of MT 6-hydroxylation, RLM, MT 1 μM) was 13.5 ± 1.15 µM and the IC50 at 30 min ([3]; IC50, rat, as listed in Table 6 for static DDI model) was 9.51 µM.
